Measurements as given in PMC8253137, “Microbiota-derived butyrate is an endogenous HIF prolyl hydroxylase inhibitor” (Gut Microbes, 2021).

Columns and labels:
T84 cells = experiment: HIF stabilization in T84 cells (HIF-1α target mRNA, HIF-1α western blot); assay type: cell-based; settings: 4 h
Method: T84 cells were cultured in 95% air with 5% CO2 at 37°C in standard media made of DMEM:F-12 supplemented with 10% calf serum, 1% penicillin/streptomycin, and 1% GlutaMAX™ (ThermoFisher Scientific) on 9.6 cm^2 6-well plates (ThermoFisher Scientific). Real-time oxygen sensing was done using the SensorDish Reader from Applikon Biotechnology as described previously with T84 cells plated on 0.33 cm^2 transwell inserts (Corning, 0.4 μm).[12] All MCPA treatments included a 2 h pretreatment with MCPA before treatment with butyrate.
(§1) TRIzol® reagent (ThermoFisher Scientific) was used to isolate total RNA from T84 cells. Mouse colon tissue samples were harvested into RNAlater™ (Invitrogen) and stored at 4°C for 48 h. Total RNA was isolated from the tissues using RNeasy Plus Mini Kit (Qiagen). cDNA was prepared using the iScript cDNA Synthesis Kit (Bio-Rad). Quantitative PCR analysis was performed using the Power SYBR™ Green master mix (Applied Biosystems) in a thermocycler. Fold change in expression of target mRNA relative to β-actin (ACTB) mRNA was calculated using the delta-delta Ct method. Primer sequences used are as follows: hBNIP3 – forward, 5′- […] −3′, reverse, 5′- […] −3′; hBNIP3L – forward, 5′- […] −3′, reverse, 5′- […] −3′; hGLUT1 – forward, 5′- […] −3′, reverse, 5′- […] −3′; hACTB – forward, 5′- […]-3′, reverse, 5′- […]-3′; mBnip3 – forward, 5′- […] −3′, reverse, 5′- […] −3′; mBnip3l – forward, 5′- […] −3′, reverse, 5′- […] −3′; mGlut1 – forward, 5′- […] −3′, reverse, 5′- […] −3′; and mActb – forward, 5′- […] −3′, reverse, 5′- […] −3′.
(§2) T84 cells were rinsed with PBS and collected and lysed in 200 µL of radioimmunoprecipitation assay (RIPA, 50 mM Tris-HCl pH 8.0, 1 mM EDTA, 1% Triton X-100, […], 0.5% sodium deoxycholate, 150 mM NaCl) buffer with protease inhibitors on ice. Mouse colon samples were harvested into 350 µL of RIPA buffer and flash frozen in liquid nitrogen. Samples were homogenized by sonication, and insoluble materials removed by centrifugation at 10,000 g for 5 min at 4°C. Protein quantity of the supernatant was determined using the Bradford reagent. […]

murine colon tissue = experiment: Rectal gavage in antibiotic-treated SCFA-depleted mice; assay type: in vivo; settings: after antibiotics
Method: C57BL/6 mice were purchased from Jackson Laboratories. Animals were maintained and bred in standard housing conditions under 24 h/day, 7 days/week veterinary care available at the University of Colorado Anschutz Medical Campus (AMC) animal facility. All animal procedures were reviewed and approved by the Institutional Animal Care and Use Committee at AMC. 8 to 10-week-old male and female mice were pre-administered an antibiotic cocktail consisting of 1 mg/mL ampicillin, gentamicin, and neomycin, 0.5 mg/mL vancomycin, and 0.25 mg/mL metronidazole for 5 d ad libitum in addition to water control mice. Mice were then given 200 µL of tributyrin daily for three days using reusable feeding needles (18060–20, Fine Science Tools). On the third day, 4 h prior to sacrifice, select mice given tributyrin were rectally given 100 μL of 60 mM MCPA with plastic gavage tubes (FTP-20-38-50, Instech) inserted 1 cm into the rectum without surgical lubricant. Whole colon tissue at the site of the rectal gavage was collected for metabolite analysis, while colon whole tissue and epithelial scrapings upstream from the gavage site was collected for RNA and protein analysis. In the second butyrate reconstitution experiment, mice were rectally given 100 μL of 100 mM butyrate, 100 mM butyrate with 10 mM MCPA, 1.5 mM IOX2, or PBS control under anesthesia. Mice were then sacrificed 1 h after rectal supplementation and colon tissues collected for metabolite, mRNA, and protein analysis from the site of the rectal gavage.
as §1
as §2, with “reagent. Laemmli sample buffer was added to each sample. Samples (20 µg) were run and separated on 8% SDS-PAGE gels and transferred to polyvinylidene fluoride (PVDF) membranes. Membranes were blocked overnight at 4°C in Tris-buffered saline with 1% Tween-20 (TBS-T) and 5% milk.” for “reagent.”

Q: Which results are given for `CCCC(=O)O` [Butyrate]?
A: HIF stabilization in the presence of MCPA (T84 cells; 10 mM butyrate with 1 mM MCPA): still stabilized HIF; HIF-1α protein levels (T84 cells; 10 mM butyrate): increased; HIF-1α target gene mRNA (BNIP3, BNIP3L, GLUT1) (T84 cells; 10 mM butyrate): induction; mRNA expression of HIF-1α targets Bnip3, Bnip3l, Glut1 (murine colon tissue; colon tissue, rectal 100 mM butyrate or 1.5 mM IOX2, 1 h): rescued; mRNA expression of HIF-1α targets Bnip3, Bnip3l, Glut1, butyrate with MCPA (murine colon tissue; colon tissue, rectal 100 mM butyrate with 10 mM MCPA, 1 h): rescued; colon tissue 2-OG levels (murine colon tissue; rectal 100 mM butyrate or 1.5 mM IOX2, 1 h): rescued
